“Also recorded” adds a separate entry of the source. Bridge positions count the residues as written; N and C are the ends. Ends that are not written are not given here.

The values below come from patent publication US9085642B2, “Peptide inhibiting rankl-rank interaction and the use thereof” (RESEARCH & BUSINESS FOUNDATION SUNGKYUNKWAN UNIVERSITY, priority 2013, dated 2015).

For this test, the system named is osteoclast precursors. The test can be described thus: Osteoclast differentiation by RANKL, TRAP assay and count of TRAP-positive multinucleated cells. The test is classed as cell-based, rat. The note with it: RANKL-induced differentiation, peptides treated by concentrations, TRAP assay, FIGS. 6B and 7. The method, then: That is, osteoclast precursors of rats were extracted from tibia and the femoral region of 5 to 8-week male rats, and purified. The osteoclast precursors were cultured in α-MEM containing 30 ng/ml of M-CSF and 10% FBS in 96-well plates (1×10^5/ml, 200 μl/well). The cells were cultured at 37° C. in a wet atmosphere containing 5% CO2. Differentiation of the osteoclast precursors were measured by a value of tartrate-resistant acid phosphatase (TRAP) activity in vitro. The TRAP staining assay was performed using a matrix Naphthol AS phosphate in 100 mM sodium acetate (pH 5.2). TRAP-positive multinucleated cells were calculated as osteoclast-like multinucleated cells using a microscope, and the assay described above were repeated three times to obtain statistical data.
In the condition of differentiating osteoclasts by the RANKL, 5 peptides (L3-3, L3-3S, L3-3N, L3-3A, and L3-3B) manufactured in Example 5 were treated by concentrations to observe a degree of inhibition, and the results are shown in FIGS. 6 and 7.

In the case of “Ser-Asp-Cys-Glu-Cys-Ser-Arg-Arg (SDCECSRR; disulfide 3-5) [L3-3B]”, the “inhibitory effect on osteoclast differentiation” value is “better effects than conventionally disclosed peptides (L3-3 and L3-3S); also recorded: extraordinarily higher inhibitory effect than L3-3A”.
